The source made the active and inactive calls.
How the values were obtained:
[1] = test system: Streptococcus sp. 'group A'; assay: growth inhibition of control SK(-) GAS strain, dose response, counter-screen for streptokinase expression inhibitor project, luminescence, kanamycin, BacTiterGlo, confirmation (AID 1900); type: functional, organism-based
Streptokinase A = target: T1, Streptokinase A (Streptococcus pyogenes serotype M1, UniProt P10520); assay: S. pyogenes streptokinase expression inhibitors, potency, dose response, plasminogen activation absorbance, OD405 (AID 1914); type: functional, Streptococcus pyogenes M1 GAS;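 further: secreted streptokinase activity via plasminogen activation per viability signal from cell pellet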
T1 sequence (P10520 whole entry): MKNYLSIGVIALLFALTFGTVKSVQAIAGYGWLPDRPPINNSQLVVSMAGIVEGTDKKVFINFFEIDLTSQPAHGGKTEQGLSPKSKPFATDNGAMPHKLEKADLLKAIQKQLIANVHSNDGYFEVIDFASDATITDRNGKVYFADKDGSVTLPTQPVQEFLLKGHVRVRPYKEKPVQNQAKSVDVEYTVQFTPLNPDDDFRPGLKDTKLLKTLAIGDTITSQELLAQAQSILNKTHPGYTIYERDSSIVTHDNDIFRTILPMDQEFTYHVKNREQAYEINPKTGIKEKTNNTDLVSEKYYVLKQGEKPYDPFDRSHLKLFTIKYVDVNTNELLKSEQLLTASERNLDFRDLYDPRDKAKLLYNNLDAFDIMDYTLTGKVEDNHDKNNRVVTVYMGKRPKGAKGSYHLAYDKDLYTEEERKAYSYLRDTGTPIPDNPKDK

Streptococcus = assay: Group A Streptococcus viability loss, dose response, counter-screen for streptokinase expression inhibitor project, luminescence, BacTiterGlo (AID 1915); type: functional, organism-based;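 further: potency for reduction of bacterial viability or growth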
[2] = Luminescence Cell-Based Dose Retest to Confirm Inhibitors of Cancer Stem Cells. [Related pubchem assays (depositor defined):AID2717, AID2721]; type: functional; conditions: Homo sapiens
Bcl-2-related protein A1 = target: T2, Bcl-2-related protein A1 (Mus musculus, UniProt Q07440); type: functional;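 further: confirmatory dose–response counterscreen on Bfl-1, used to check hits from a UBC13 polyubiquitin inhibitor campaign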
T2 sequence (Q07440 whole entry): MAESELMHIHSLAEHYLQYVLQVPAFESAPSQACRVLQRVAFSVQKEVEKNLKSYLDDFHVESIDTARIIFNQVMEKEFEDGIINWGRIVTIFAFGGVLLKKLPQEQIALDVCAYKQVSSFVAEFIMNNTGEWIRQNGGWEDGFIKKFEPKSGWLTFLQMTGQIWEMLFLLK

[3] = target: T3, Ubiquitin-conjugating enzyme E2 N (Homo sapiens, UniProt P61088); type: functional
T3 sequence (P61088 whole entry): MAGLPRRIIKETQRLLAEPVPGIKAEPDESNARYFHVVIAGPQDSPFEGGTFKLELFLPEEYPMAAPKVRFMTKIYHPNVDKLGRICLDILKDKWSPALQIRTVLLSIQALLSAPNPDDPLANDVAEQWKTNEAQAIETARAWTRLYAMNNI

[4] = target: T3, Ubiquitin-conjugating enzyme E2 N; type: functional; remark: listed apart in the source
Cysteine protease ATG4B = Cysteine protease ATG4B (Homo sapiens, UniProt Q9Y4P1); type: functional;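 further: Fluorescence-based dose-response confirmation assay measuring inhibition of ATG4B activity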
[5] = target: T4, Replicative DNA helicase DnaB (Mycobacterium tuberculosis, UniProt P9WMR3); assay: DnaB intein splicing inhibitors, dose response, biochemical, cell-free fluorescence (AID 449749); type: functional
T4 sequence (P9WMR3 whole entry): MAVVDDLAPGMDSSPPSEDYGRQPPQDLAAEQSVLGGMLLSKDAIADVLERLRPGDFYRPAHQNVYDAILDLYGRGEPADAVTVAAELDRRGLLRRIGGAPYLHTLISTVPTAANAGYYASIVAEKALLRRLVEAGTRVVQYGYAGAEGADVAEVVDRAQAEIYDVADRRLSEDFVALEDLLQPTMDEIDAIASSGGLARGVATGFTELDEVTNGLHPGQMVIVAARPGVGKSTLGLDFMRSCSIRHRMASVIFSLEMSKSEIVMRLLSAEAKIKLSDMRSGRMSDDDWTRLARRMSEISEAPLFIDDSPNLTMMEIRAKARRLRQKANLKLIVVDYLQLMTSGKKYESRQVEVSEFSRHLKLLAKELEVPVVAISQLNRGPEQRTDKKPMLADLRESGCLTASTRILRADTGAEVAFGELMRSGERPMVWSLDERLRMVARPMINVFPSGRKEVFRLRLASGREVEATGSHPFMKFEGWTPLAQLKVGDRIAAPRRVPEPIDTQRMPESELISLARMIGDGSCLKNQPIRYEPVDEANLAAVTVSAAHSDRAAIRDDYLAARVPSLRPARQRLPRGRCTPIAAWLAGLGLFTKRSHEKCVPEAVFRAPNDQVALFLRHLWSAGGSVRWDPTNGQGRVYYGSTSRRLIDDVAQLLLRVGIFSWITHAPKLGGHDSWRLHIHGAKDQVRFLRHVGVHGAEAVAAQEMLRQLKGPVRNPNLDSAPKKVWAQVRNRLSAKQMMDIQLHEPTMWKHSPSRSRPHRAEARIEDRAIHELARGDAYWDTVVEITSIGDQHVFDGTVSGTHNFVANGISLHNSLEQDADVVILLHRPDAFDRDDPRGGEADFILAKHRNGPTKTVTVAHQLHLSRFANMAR

Phospholipase A2 = Phospholipase A2 (Homo sapiens, UniProt P04054); type: functional;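 further: confirmatory dose-response counterscreen on phospholipase A2, testing hits that came from an ultra-high-throughput screen for ATG4B inhibitors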
Protein RecA = target: T5, Protein RecA (Mycobacterium tuberculosis, UniProt P9WHJ3); assay: Fluorescence Cell-Free Homogeneous Dose Retest to Identify Inhibitors of RecA-Intein Splicing Activity. [Related pubchem assays (depositor defined):AID2097, AID2223, AID489010, AID492950]; type: functional
T5 sequence (P9WHJ3 whole entry): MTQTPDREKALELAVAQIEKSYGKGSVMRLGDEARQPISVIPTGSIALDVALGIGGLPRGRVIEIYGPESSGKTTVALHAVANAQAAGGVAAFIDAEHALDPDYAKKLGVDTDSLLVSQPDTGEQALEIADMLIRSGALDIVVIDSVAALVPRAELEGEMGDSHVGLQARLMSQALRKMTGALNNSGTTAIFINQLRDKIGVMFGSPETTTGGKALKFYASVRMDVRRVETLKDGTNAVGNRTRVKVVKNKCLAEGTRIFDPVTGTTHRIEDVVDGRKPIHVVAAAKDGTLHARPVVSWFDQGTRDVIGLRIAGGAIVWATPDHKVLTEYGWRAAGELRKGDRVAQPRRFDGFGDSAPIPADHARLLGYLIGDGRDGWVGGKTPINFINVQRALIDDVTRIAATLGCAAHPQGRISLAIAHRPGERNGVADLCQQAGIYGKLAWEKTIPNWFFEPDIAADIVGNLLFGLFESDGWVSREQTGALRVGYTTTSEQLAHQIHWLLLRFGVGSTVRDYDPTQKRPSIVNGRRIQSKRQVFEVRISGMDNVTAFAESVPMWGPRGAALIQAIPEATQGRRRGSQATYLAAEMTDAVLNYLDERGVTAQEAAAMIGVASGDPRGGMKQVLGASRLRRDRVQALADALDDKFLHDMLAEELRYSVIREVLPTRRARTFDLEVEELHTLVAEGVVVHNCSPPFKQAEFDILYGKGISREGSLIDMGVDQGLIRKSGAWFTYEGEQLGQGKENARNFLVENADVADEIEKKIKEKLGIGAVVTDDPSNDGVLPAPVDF

[6] = target: T6, Sentrin-specific protease 8 (Homo sapiens, UniProt Q96LD8); assay: SENP8 protease inhibitors, SAR follow-up, biochemical, luminescence (AID 504501); type: functional
T6 sequence (Q96LD8 whole entry): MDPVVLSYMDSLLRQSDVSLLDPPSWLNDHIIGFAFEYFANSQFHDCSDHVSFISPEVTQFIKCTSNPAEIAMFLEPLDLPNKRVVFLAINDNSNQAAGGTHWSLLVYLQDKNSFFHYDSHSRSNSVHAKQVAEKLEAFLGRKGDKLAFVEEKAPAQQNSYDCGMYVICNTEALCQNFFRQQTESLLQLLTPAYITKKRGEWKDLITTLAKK

Caspase-3 = target: T7, Caspase-3 (Homo sapiens, UniProt P42574); assay: SAR Analysis of small molecule inhibitors of Sentrin-specific proteases (SENPs) using a Caspase-3 Selectivity assay. [Related pubchem assays (depositor defined):AID2540, AID2599, AID434973, AID489001]; type: functional
T7 sequence (P42574 whole entry): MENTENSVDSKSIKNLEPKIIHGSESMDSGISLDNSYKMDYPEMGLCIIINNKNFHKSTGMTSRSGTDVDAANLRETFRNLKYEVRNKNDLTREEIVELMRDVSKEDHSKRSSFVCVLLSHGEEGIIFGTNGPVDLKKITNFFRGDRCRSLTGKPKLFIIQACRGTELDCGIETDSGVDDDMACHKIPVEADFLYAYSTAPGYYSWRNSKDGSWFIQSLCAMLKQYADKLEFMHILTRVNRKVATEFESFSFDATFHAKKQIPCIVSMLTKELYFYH

[7] = target: T8, Sentrin-specific protease 6 (Homo sapiens, UniProt Q9GZR1); assay: SAR Analysis of small molecule inhibitors of Sentrin-specific protease 6 (SENP6) using a Luminescent assay. [Related pubchem assays (depositor defined):AID2582, AID2599]; type: functional
T8 sequence (Q9GZR1 whole entry): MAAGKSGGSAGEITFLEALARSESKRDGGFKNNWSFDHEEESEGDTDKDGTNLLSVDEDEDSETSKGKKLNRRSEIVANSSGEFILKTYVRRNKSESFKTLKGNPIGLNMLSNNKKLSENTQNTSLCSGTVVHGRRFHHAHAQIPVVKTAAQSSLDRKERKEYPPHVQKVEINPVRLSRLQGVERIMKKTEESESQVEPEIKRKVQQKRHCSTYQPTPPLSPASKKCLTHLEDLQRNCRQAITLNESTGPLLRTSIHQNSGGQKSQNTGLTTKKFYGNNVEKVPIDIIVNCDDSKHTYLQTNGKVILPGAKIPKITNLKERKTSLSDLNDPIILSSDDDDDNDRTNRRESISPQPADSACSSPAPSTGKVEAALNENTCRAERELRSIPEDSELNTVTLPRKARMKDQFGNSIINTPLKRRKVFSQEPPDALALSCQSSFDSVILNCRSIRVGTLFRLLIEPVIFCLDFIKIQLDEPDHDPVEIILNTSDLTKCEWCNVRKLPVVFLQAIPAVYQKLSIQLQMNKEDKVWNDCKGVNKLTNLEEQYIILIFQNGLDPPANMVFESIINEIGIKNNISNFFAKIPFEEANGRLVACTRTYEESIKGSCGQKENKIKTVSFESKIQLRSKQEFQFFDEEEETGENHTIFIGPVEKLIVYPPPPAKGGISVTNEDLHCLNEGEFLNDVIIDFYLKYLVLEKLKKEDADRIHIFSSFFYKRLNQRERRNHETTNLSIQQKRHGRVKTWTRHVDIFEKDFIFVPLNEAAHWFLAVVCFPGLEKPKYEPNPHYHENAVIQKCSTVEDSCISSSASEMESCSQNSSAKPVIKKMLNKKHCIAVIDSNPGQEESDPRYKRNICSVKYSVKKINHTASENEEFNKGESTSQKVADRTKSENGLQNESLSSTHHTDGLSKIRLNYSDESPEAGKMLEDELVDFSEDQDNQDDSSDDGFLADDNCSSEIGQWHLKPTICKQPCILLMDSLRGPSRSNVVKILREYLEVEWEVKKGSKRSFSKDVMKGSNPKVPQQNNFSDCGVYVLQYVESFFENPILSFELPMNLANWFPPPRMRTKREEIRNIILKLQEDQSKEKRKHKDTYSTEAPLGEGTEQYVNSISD

[8] = target: T9, Sentrin-specific protease 7 (Homo sapiens, UniProt Q9BQF6); assay: SENP7 protease inhibitors, SAR follow-up, biochemical, luminescence (AID 504497); type: functional
T9 sequence (Q9BQF6 whole entry): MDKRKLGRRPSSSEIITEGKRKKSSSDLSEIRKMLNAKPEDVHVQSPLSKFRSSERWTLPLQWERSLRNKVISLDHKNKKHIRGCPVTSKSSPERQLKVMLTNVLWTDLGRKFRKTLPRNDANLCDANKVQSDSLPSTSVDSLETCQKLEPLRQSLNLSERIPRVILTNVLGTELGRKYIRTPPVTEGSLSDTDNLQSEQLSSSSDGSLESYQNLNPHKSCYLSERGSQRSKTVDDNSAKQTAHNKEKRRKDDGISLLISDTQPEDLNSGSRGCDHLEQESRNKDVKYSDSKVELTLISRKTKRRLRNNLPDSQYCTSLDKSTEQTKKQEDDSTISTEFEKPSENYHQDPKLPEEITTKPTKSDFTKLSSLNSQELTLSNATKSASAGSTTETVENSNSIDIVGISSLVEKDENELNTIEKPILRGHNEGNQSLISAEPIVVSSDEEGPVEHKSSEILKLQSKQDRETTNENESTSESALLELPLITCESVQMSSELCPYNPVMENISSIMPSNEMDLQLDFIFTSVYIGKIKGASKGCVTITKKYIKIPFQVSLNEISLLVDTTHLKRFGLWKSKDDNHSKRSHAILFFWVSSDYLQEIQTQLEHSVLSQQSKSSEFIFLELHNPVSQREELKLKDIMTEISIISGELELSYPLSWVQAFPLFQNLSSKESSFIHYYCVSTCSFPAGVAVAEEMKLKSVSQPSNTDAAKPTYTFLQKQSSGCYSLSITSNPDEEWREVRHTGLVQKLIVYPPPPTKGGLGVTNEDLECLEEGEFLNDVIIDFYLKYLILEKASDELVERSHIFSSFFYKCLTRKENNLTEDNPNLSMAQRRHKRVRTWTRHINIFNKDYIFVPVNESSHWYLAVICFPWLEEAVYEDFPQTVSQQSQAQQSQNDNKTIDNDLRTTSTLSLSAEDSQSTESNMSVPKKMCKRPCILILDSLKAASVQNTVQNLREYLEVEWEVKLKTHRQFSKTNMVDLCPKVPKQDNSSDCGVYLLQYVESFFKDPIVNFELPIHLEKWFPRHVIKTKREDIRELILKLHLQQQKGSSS

Chain of Cysteine protease ATG4B (Q9Y4P1 whole entry): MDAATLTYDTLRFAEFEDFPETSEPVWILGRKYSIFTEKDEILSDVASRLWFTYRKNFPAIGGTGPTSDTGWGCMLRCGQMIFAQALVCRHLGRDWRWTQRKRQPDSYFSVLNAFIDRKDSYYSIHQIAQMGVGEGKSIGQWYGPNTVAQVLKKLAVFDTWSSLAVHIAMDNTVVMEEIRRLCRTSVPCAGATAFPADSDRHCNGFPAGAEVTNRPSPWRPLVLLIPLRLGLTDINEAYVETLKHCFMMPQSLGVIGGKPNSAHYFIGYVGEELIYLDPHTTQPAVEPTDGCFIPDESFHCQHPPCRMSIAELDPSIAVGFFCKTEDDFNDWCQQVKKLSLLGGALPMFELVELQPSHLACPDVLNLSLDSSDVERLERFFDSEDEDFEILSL
Chain of Phospholipase A2 (P04054 whole entry): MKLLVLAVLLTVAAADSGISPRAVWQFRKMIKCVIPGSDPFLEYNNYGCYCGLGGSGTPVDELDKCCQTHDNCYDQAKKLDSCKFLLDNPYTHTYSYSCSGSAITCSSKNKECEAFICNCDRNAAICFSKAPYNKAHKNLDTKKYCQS

Compound: CCCCCCCCOC(=O)c1c(CSC(=N)N)n(C)c2cc(Br)c(OC(C)=O)cc12
- EC50 [1]: 2.05 µM (active)
- EC50 (Streptokinase A): > 150 µM (not active)
- EC50 (Streptococcus): 8.01 µM (active)
- AC50 [2]: 2.7 µM (active)
- IC50 (Bcl-2-related protein A1): > 20 µM (inactive)
- IC50 [3]: 12.4 µM (active)
- IC50 [4]: 4.22 µM (active)
- IC50 (Cysteine protease ATG4B): 8.63 µM (active)
- AC50 [5]: 4.36 µM (active)
- IC50 (Phospholipase A2): 52.2 µM (inactive)
- EC50 (Protein RecA): 1.57 µM (active)

Compound: Cc1ccc(/C=C/c2nc(-c3ccc(NS(=O)(=O)c4cccs4)cc3)no2)cc1
- IC50 [6]: > 99 µM (inactive)
- IC50 (Caspase-3): > 99 µM (inactive)
- IC50 [7]: > 99 µM (inactive)
- IC50 [8]: > 99 µM (inactive)

Compound: Cc1cc(NS(=O)(=O)c2ccc(F)c(F)c2)cc2sc(NC(=O)c3ccccc3)nc12
- IC50 [6]: > 99 µM (inactive)
- IC50 (Caspase-3): > 99 µM (inactive)
- IC50 [7]: > 99 µM (inactive)
- IC50 [8]: 34.3 µM (active)

Reference: ChEMBL document CHEMBL1201862, “PubChem BioAssay data set” (2004)
